The text below walks through data of ChEMBL document CHEMBL4351009, “hERG optimizations of IMB1603, discovery of alternative benzothiazinones as new antitubercular agents” (Eur J Med Chem, 2019).

Converted amounts (≈) assume the structure as drawn.

The test system of data set [1] is Mycobacterium tuberculosis. The data set can be described thus: Antimycobacterial activity against Mycobacterium tuberculosis H37Rv infected in BALB/c mouse assessed as reduction in colony forming unit in lung at 25 mg/kg, po administered once daily for 5 days a week for 3 weeks. The data set is classed as functional.
In data set [2] the test system is Mycobacterium tuberculosis. Nature of the data set: Antimycobacterial activity against Mycobacterium tuberculosis H37Rv ATCC 27294 assessed as reduction in bacterial cell viability incubated for 7 days by microplate alamar blue assay. The data set is classed as functional. Conditions: H37Rv ATCC 27294, 168 h. (Alamar Blue is a resazurin reagent that responds to reducing activity.)

Another data set concerns the target hERG (KCNH2) (Homo sapiens, UniProt Q12809). Nature of the data set: Inhibition of human ERG transfected in HEK293 cells at 10 uM by whole cell patch clamp assay relative to control. The data set is classed as cell-based. Conditions: HEK293 cells transfected with human ERG. (In general: The patch-clamp technique gives a direct electrical read-out from membranes.)

The nature of data set [3]: Tmax in SPF ICR mouse at 25 mg/kg, po measured upto 24 hrs by HPLC analysis. The data set is classed as ADME, organism-based. As to conditions: in vivo.
Data set [4] is described as follows: Cmax in SPF ICR mouse at 25 mg/kg, po measured upto 24 hrs by HPLC analysis. The data set is classed as ADME, organism-based. Also noted: dose 25 mg/kg, route oral. Conditions: in vivo.
Data set [5] is described as follows: Half life in SPF ICR mouse at 25 mg/kg, po measured upto 24 hrs by HPLC analysis. The data set is classed as ADME, organism-based. Conditions: in vivo.
Data set [6] can be described thus: AUC (0 to t) in SPF ICR mouse at 25 mg/kg, po measured upto 24 hrs by HPLC analysis. The data set is classed as ADME, organism-based. Also noted: dose 25 mg/kg, time < 24 hr, route oral. As to conditions: in vivo.
A short description of data set [7]: Acute toxicity in ICR mouse assessed as mouse survival at 500 mg/kg, po observed continuously for 4 hrs and each hr for next 24 hrs and at 8 hrs interval for following 7 days. Conditions: in vivo. The data set is classed as organism-based.

Sequence of hERG (KCNH2) (Q12809 whole entry): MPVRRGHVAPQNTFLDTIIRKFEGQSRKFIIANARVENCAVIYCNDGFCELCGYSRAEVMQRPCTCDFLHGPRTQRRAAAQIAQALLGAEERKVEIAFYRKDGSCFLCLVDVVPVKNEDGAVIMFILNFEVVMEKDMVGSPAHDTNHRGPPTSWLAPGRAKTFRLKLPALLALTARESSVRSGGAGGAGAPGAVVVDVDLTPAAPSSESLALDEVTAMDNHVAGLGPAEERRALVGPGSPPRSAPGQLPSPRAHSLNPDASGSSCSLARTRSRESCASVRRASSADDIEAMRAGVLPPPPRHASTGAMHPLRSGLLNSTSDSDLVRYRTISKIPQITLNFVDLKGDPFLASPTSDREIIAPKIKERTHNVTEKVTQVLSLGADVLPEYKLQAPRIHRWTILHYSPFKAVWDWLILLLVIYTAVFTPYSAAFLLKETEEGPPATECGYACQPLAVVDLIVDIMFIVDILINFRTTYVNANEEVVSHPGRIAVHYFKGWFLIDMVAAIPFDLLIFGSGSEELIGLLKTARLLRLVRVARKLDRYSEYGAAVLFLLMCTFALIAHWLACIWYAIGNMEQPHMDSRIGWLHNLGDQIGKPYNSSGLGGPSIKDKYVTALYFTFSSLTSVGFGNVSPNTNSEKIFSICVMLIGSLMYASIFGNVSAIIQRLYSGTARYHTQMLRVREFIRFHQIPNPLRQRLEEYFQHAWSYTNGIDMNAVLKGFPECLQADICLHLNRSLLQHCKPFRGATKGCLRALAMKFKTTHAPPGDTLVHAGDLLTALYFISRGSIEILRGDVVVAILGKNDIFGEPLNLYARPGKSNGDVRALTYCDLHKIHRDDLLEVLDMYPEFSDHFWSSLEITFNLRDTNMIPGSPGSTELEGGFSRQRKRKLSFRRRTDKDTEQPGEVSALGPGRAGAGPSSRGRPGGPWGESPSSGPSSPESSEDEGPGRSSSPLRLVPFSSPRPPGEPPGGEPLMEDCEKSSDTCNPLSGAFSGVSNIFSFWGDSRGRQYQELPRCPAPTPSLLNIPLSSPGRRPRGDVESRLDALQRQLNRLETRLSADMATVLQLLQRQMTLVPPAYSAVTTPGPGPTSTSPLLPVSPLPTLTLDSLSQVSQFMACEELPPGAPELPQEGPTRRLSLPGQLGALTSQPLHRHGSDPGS

With `O=c1nc(N2CCC3(CCN(Cc4ccc(F)cc4)C3)CC2)sc2c([N+](=O)[O-])cc(C(F)(F)F)cc12`, the Activity in data set [1] is 3.2 log10CFU. The MIC – broadly, the lowest concentration found to suppress growth – in data set [2] was less than 0.035 µM. Moreover, the inhibition (as a rule, the share of the control response that was lost under treatment) at 10 µM at hERG (KCNH2) was 95.7%.
Regarding `O=c1nc(N2CCC3(CCN(Cc4ccc(Br)cc4)CC3)CC2)sc2c([N+](=O)[O-])cc(C(F)(F)F)cc12`, the MIC in data set [2] is less than 0.035 µM. The molecule also displayed an inhibition at 10 µM against hERG (KCNH2) of 97%.
As for `O=c1nc(N2CCC3(CCN(Cc4ccc(C(F)(F)F)cc4)CC3)CC2)sc2c([N+](=O)[O-])cc(C(F)(F)F)cc12`, the MIC in data set [2] is less than 0.035 µM. At hERG (KCNH2), the inhibition at 10 µM was found to be 94.6%.
For the molecule `O=c1nc(N2CC3CCC2CN3Cc2ccc(F)cc2)sc2c([N+](=O)[O-])cc(C(F)(F)F)cc12` (centres undefined), the Tmax (usually the time at which the peak concentration occurs) in data set [3] was found to be 15 min. In data set [4], the peak level (Cmax) was 3040 ng/mL. For the same molecule, in data set [5], the half-life (usually the time needed for the level to fall by half in the phase considered) was 75 min. The AUC(0-t) – broadly, the area under the concentration-time curve up to a stated or last time point – at 24 h in data set [6] came out at 3550 ng·h/mL. In addition, the MIC in data set [2] turned out to be 0.078 µM (≈ 0.0386 µg/mL). The same molecule displayed an inhibition at 10 µM on hERG (KCNH2) of 34.9%. In addition, the Activity result in data set [7] is “Non-Toxic”.
As for `O=c1nc(N2CCC3(CCN(CCc4ccc(F)cc4)C3)CC2)sc2c([N+](=O)[O-])cc(C(F)(F)F)cc12`, the MIC in data set [2] was 0.055 µM (≈ 0.0295 µg/mL). Moreover, on hERG (KCNH2), at 10 µM the inhibition was 92.7%.
In the same order, the values of `O=c1nc(N2CCC3(CCN(Cc4ccncc4)C3)CC2)sc2c([N+](=O)[O-])cc(C(F)(F)F)cc12` are 0.122 µM (≈ 0.0617 µg/mL) and 74.1%.
The like results for `O=c1nc(N2CCC3(CCN(Cc4cccc(F)c4F)C3)CC2)sc2c([N+](=O)[O-])cc(C(F)(F)F)cc12` were, in that order, less than 0.035 µM and 88.5%.
For `Cn1cccc1CN1CCC2(CCN(c3nc(=O)c4cc(C(F)(F)F)cc([N+](=O)[O-])c4s3)CC2)C1`, the MIC in data set [2] is 0.479 µM (≈ 0.243 µg/mL).
For `O=c1nc(N2CCC3(CCN(CCCc4ccc(F)cc4)C3)CC2)sc2c([N+](=O)[O-])cc(C(F)(F)F)cc12`, in data set [2], the MIC was less than 0.035 µM. For the same molecule, at hERG (KCNH2), the inhibition at 10 µM amounted to 85.8%.
In the same order, the values of `O=c1nc(N2CCC3(CCN(Cc4ccc([N+](=O)[O-])cc4)C3)CC2)sc2c([N+](=O)[O-])cc(C(F)(F)F)cc12` are less than 0.035 µM and 94.1%.
On to `COc1ccc2[nH]cc(CN3CCC4(CCN(c5nc(=O)c6cc(C(F)(F)F)cc([N+](=O)[O-])c6s5)CC4)C3)c2c1`, for which the MIC in data set [2] worked out at 1.48 µM (≈ 0.848 µg/mL).
With `O=c1nc(N2CCC3(CCN(Cc4ccccc4F)C3)CC2)sc2c([N+](=O)[O-])cc(C(F)(F)F)cc12`, the MIC in data set [2] was less than 0.035 µM. This molecule also returned an inhibition at 10 µM at hERG (KCNH2) of 94.9%.
The like results for `N#Cc1ccc(CN2CCC3(CCN(c4nc(=O)c5cc(C(F)(F)F)cc([N+](=O)[O-])c5s4)CC3)C2)cc1` were, in that order, less than 0.035 µM and 90.6%.
In the same order, the values of `O=c1nc(N2CCC3(CCN(Cc4cc(C(F)(F)F)cc(C(F)(F)F)c4)C3)CC2)sc2c([N+](=O)[O-])cc(C(F)(F)F)cc12` are less than 0.035 µM and 83.3%.
As to `O=c1nc(N2CCC3(CCN(Cc4cccnc4)C3)CC2)sc2c([N+](=O)[O-])cc(C(F)(F)F)cc12`, the MIC in data set [2] turned out to be 0.235 µM (≈ 0.119 µg/mL).
In the case of `O=c1nc(N2CCC3(CCN(Cc4ccc([N+](=O)[O-])c(Br)c4)C3)CC2)sc2c([N+](=O)[O-])cc(C(F)(F)F)cc12`, the MIC in data set [2] is less than 0.035 µM. The molecule further showed an inhibition at 10 µM against hERG (KCNH2) of 88.6%.
For `O=c1nc(N2CCC3(CCN(Cc4cccs4)C3)CC2)sc2c([N+](=O)[O-])cc(C(F)(F)F)cc12`, the MIC in data set [2] was less than 0.035 µM. Also, the inhibition at 10 µM on hERG (KCNH2) turned out to be 96.2%.
For `O=c1nc(N2CCC3(CCN(c4ccc(F)cc4)C3)CC2)sc2c([N+](=O)[O-])cc(C(F)(F)F)cc12`, the Tmax in data set [3] stood at 30 min. The peak level in data set [4] (Cmax) was 1610 ng/mL. The same molecule gave a half-life in data set [5] of 287 min. This molecule also displayed an AUC(0-t) at 24 h in data set [6] of 5030 ng·h/mL. In addition, the MIC in data set [2] is less than 0.035 µM. This molecule also yielded an inhibition at 10 µM on hERG (KCNH2) of 23%. Besides, the Activity result in data set [7] was “Non-Toxic”.
As to `CC(c1ccc(F)cc1)N1CCC2(CCN(c3nc(=O)c4cc(C(F)(F)F)cc([N+](=O)[O-])c4s3)CC2)CC1` (centres undefined), the MIC in data set [2] stood at 0.107 µM (≈ 0.0589 µg/mL). The molecule further registered an inhibition at 10 µM against hERG (KCNH2) of 74%.
The like results for `O=c1nc(N2CC3CC2CN3Cc2ccc(F)cc2)sc2c([N+](=O)[O-])cc(C(F)(F)F)cc12` (centres undefined) were, in that order, less than 0.035 µM and 94.3%.
With `O=c1nc(N2CCC3(CCN(Cc4ccc5ccccc5c4)C3)CC2)sc2c([N+](=O)[O-])cc(C(F)(F)F)cc12`, in data set [2], the MIC is less than 0.035 µM. This molecule returned an inhibition at 10 µM against hERG (KCNH2) of 78.1%.
In the case of `CC(c1ccc(Br)cc1)N1CCC2(CCN(c3nc(=O)c4cc(C(F)(F)F)cc([N+](=O)[O-])c4s3)CC2)CC1` (centres undefined), the MIC in data set [2] was less than 0.035 µM. Also, on hERG (KCNH2), 10 µM produced 77.2% inhibition.
As for `O=c1nc(N2CCC3(CCN(Cc4cccc5ccccc45)C3)CC2)sc2c([N+](=O)[O-])cc(C(F)(F)F)cc12`, in data set [2], the MIC worked out at 0.055 µM (≈ 0.0305 µg/mL).
In the case of `CC(c1ccc(Cl)cc1)N1CCC2(CCN(c3nc(=O)c4cc(C(F)(F)F)cc([N+](=O)[O-])c4s3)CC2)CC1` (centres undefined), the MIC in data set [2] was less than 0.035 µM. At 10 µM the inhibition against hERG (KCNH2) was 73.4%.
Take `O=c1nc(N2CC3CN(Cc4ccc(F)cc4)CC3C2)sc2c([N+](=O)[O-])cc(C(F)(F)F)cc12` (centres undefined): in data set [2], the MIC stood at 0.248 µM (≈ 0.123 µg/mL).
The same measure, in the same setting: next, `O=c1nc(N2CCC3(CCN(Cc4ccc[nH]4)C3)CC2)sc2c([N+](=O)[O-])cc(C(F)(F)F)cc12`: 1.58 µM (≈ 0.778 µg/mL).
In the case of `CCC(c1ccc(C(F)(F)F)cc1)N1CCC2(CCN(c3nc(=O)c4cc(C(F)(F)F)cc([N+](=O)[O-])c4s3)CC2)CC1` (centres undefined), the MIC in data set [2] was less than 0.035 µM. At hERG (KCNH2), this molecule displayed an inhibition at 10 µM of 69.7%.
Regarding `O=c1nc(N2CCC3(CCN(Cc4ccccn4)C3)CC2)sc2c([N+](=O)[O-])cc(C(F)(F)F)cc12`, the minimal inhibitory concentration (MIC) in data set [2] was found to be 0.477 µM (≈ 0.241 µg/mL).
`O=c1nc(N2CCC3(CCN(Cc4ccc(OC(F)(F)F)cc4)C3)CC2)sc2c([N+](=O)[O-])cc(C(F)(F)F)cc12`: the MIC in data set [2] is less than 0.035 µM. On hERG (KCNH2), this molecule returned an inhibition at 10 µM of 90.2%.
In the same order, the values of `CC(c1ccc(C(F)(F)F)cc1)N1CCC2(CCN(c3nc(=O)c4cc(C(F)(F)F)cc([N+](=O)[O-])c4s3)CC2)CC1` (centres undefined) are less than 0.035 µM and 72.9%.
In the same order, the values of `O=c1nc(N2CCC3(CCN(Cc4ccc(C(F)(F)F)cc4C(F)(F)F)C3)CC2)sc2c([N+](=O)[O-])cc(C(F)(F)F)cc12` are less than 0.035 µM and 68.6%.
The like results for `O=c1nc(N2CCC3(CCN(Cc4ncco4)C3)CC2)sc2c([N+](=O)[O-])cc(C(F)(F)F)cc12` were, in that order, 0.248 µM (≈ 0.123 µg/mL) and 53.2%.
Turning to `O=c1nc(N2CCN(C3CCN(Cc4ccc(F)cc4)CC3)CC2)sc2c([N+](=O)[O-])cc(C(F)(F)F)cc12`, the MIC in data set [2] came out at 0.054 µM (≈ 0.0298 µg/mL). This molecule also had an inhibition at 10 µM against hERG (KCNH2) of 95.6%.
As to `NNC(=O)c1ccncc1` [ISONIAZID], the minimum inhibitory concentration (MIC) in data set [2] was found to be 0.269 µM (≈ 0.0369 µg/mL).
With `O=c1nc(N2CCN(CC3CCCCC3)CC2)sc2c([N+](=O)[O-])cc(C(F)(F)F)cc12` [MACOZINONE], the Tmax in data set [3] amounted to 19.8 min. For the same molecule, the concentration in data set [4] peaked (Cmax) at 1750 ng/mL. In addition, the half-life in data set [5] is 380 min. Also, in data set [6], the AUC(0-t) at 24 h was 2480 ng·h/mL. Moreover, the MIC in data set [2] is less than 0.035 µM. Moreover, the inhibition at 10 µM on hERG (KCNH2) amounted to 41.6%. Moreover, the Activity entry in data set [7] is recorded as “Non-Toxic”.
Regarding `CO[C@H]1/C=C/O[C@@]2(C)Oc3c(C)c(O)c4c(O)c(c(/C=N/N5CCN(C)CC5)c(O)c4c3C2=O)NC(=O)/C(C)=C\C=C\[C@H](C)[C@H](O)[C@@H](C)[C@@H](O)[C@@H](C)[C@H](OC(C)=O)[C@@H]1C` [RIFAMPIN], the minimum inhibitory concentration (MIC) in data set [2] was 0.164 µM (≈ 0.135 µg/mL).
